The test relates to TEAD-dependent transcription (12XGTIIC TEAD response element luciferase reporter) in MSTO-211H cells. Put plainly: TEAD-dependent transcription cell-based luciferase reporter assay in MSTO-211H+12XGTIIC cells. As to conditions: Homo sapiens; MSTO-211H+12XGTIIC reporter cells, 24 hours compound incubation, luminescence normalized to cell viability signal, geometric mean; read-out: MSTO-211H GMean IC50 (uM) Cell Assay Reporter Cell Variant: TEAD. The text has this:
Determine Inhibitor Activity Against TEAD-Dependent Transcription in a Cell-Based Reporter Assay
The human mesothelioma cell line MSTO-211H was stably transfected with a pGL4.21 plasmid containing a synthetic promoter with 12 copies of the GTIIC TEAD response element that drives the expression of a luciferase reporter gene^1 using Lipofectamine transfection reagent (Thermo Fisher). Transfected cells were selected using puromycin and single cell clones expressing this construct (referred to as MSTO-211H+12XGTIIC) were generated by limiting dilution. MSTO-211H cells was characterized by genetic alterations in key components of the Hippo pathway^2, resulting in up-regulation of YAP/TEAD-mediated transcription. […] To evaluate TEAD inhibitors, the MSTO-211H+12XGTIIC cell line was seeded in a 96-well plate in 50 μL of culture media at 1×10^4 cells per well and incubated at 37° C. overnight. Serial dilutions of compounds (in total volume of 50 μL of culture media) were added to the cells and incubated at 37° C. for 24 hours. Each plate included cells treated with DMSO as high controls and cells treated with 20 μM of the reference compound K-975 (a known TEAD inhibitor^3) as low controls. Cell viability was assayed by the addition of 25 μL of CellTiter-Fluor reagent (Promega) followed by a 30-minute incubation at 37° C. and quantification of the fluorescence signal (Ex400/Em505). Subsequently, luciferase expression was assayed by the addition of 25 μL of ONE-Glo reagent (Promega) followed by a 10-minute incubation at room temperature and quantification of the luminescence signal. The luminescence signal was normalized to the fluorescence signal to correct for any loss in cell viability over the 24-hour compound incubation period. The percentage of inhibition of normalized luminescence signal, indicative of compound-mediated inhibition of TEAD-dependent transcription, at individual compound concentrations relative to high and low controls was calculated. The data were analyzed by using nonlinear regression to generate IC50 values for individual compounds.
(Reporter assays use an easily measured gene product as a stand-in for the process of interest.)

Take `O=C(NC1CC1)N1CCC(C(=O)N2CCc3c(cccc3Nc3ccc(C(F)(F)F)nc3)C2)C1` (stereo not drawn) [Compound O-0096, N-cyclopropyl-3-(5-((6-(trifluoromethyl)pyridin-3-yl)amino)-1,2,3,4-tetrahydroisoquinoline-2-carbonyl)pyrrolidine-1-carboxamide]: the IC50 (as a rule, the point on the concentration scale where inhibition reaches its midpoint) lay within 0.001 to 10 µM.
`O=C(CCS(=O)(=O)C(F)(F)F)N1CCc2cc(Nc3ccc(C(F)(F)F)cc3)ccc2C1` [Compound O-0205, 1-(6-((4-(trifluoromethyl)phenyl)amino)-3,4-dihydroisoquinolin-2(1H)-yl)-3-((trifluoromethyl)sulfonyl)propan-1-one]: the IC50 was in the range of 0.001 to 10 µM.
On to `O=C(c1cccc2[nH]c(C(F)(F)F)nc12)N1CCc2c(cccc2Nc2ccc(C(F)(F)F)cc2)C1` [Compound O-0058, (2-(trifluoromethyl)-1H-benzo[d]imidazol-4-yl)(5-((4-(trifluoromethyl)phenyl)amino)-3,4-dihydroisoquinolin-2(1H)-yl)methanone], for which the IC50 fell in the range of 0.001 to 10 µM.
On to `O=C(Cc1cncs1)N1CCc2c(cccc2Nc2ccc(C(F)(F)F)cc2)C1` [Compound O-0003, 2-(thiazol-5-yl)-1-(5-((4-(trifluoromethyl)phenyl)amino)-3,4-dihydroisoquinolin-2(1H)-yl)ethan-1-one], for which the IC50 fell in the range of 0.001 to 10 µM.
As for `O=C(c1cccc2[nH]ccc12)N1CCc2c(cccc2Nc2ccc(C(F)(F)F)cc2)C1` [Compound O-0027, (1H-indol-4-yl)(5-((4-(trifluoromethyl)phenyl)amino)-3,4-dihydroisoquinolin-2(1H)-yl)methanone], the IC50 lay in the range of 0.001 to 10 µM.
Take `C=CC(=O)Nc1cccc(C(=O)N2CCc3c(cccc3N(C)c3ccc(C(F)(F)F)cc3)C2)n1` [Compound O-0018, N-(6-(5-(methyl(4-(trifluoromethyl)phenyl)amino)-1,2,3,4-tetrahydroisoquinoline-2-carbonyl)pyridin-2-yl)acrylamide]: the IC50 lay in the range of 0.001 to 10 µM.
For the molecule `O=C(C1CCS(=O)(=O)CC1)N1CCc2cc(Nc3ccc(C(F)(F)F)cc3)ccc2C1` [Compound O-0208, (1,1-dioxidotetrahydro-2H-thiopyran-4-yl)(6-((4-(trifluoromethyl)phenyl)amino)-3,4-dihydroisoquinolin-2(1H)-yl)methanone], the IC50 is 0.001 to 10 µM.
Consider `O=C1NC(=O)C(CC(=O)N2CCc3c(cccc3Nc3ccc(C(F)(F)F)cc3)C2)N1` (stereo not drawn) [Compound O-0055, 5-(2-oxo-2-(5-((4-(trifluoromethyl)phenyl)amino)-3,4-dihydroisoquinolin-2(1H)-yl)ethyl)imidazolidine-2,4-dione], for which the IC50 was 0.001 to 10 µM.
With `CS(=O)(=O)c1cc(C(=O)N2CCc3c(cccc3Nc3ccc(C(F)(F)F)cc3)C2)ccn1` [Compound O-0201, (2-(methylsulfonyl)pyridin-4-yl)(5-((4-(trifluoromethyl)phenyl)amino)-3,4-dihydroisoquinolin-2(1H)-yl)methanone], the IC50 was in the range of 0.001 to 10 µM.
The value for `O=C(NCCC(=O)N1CCc2c(cccc2Nc2ccc(C(F)(F)F)cn2)C1)Nc1ccccn1` [Compound O-0186, 1-(3-oxo-3-(5-((5-(trifluoromethyl)pyridin-2-yl)amino)-3,4-dihydroisoquinolin-2(1H)-yl)propyl)-3-(pyridin-2-yl)urea] was 0.001 to 10 µM; that for `CN(c1ccc(C(F)(F)F)cc1)c1cccc2c1CCN(C(=O)c1cccc(N)c1)C2` [Compound O-0013, (3-aminophenyl)(5-(methyl(4-(trifluoromethyl)phenyl)amino)-3,4-dihydroisoquinolin-2(1H)-yl)methanone] was 0.001 to 10 µM; that for `O=C(C1CS(=O)(=O)C1)N1CCc2cc(Nc3ccc(C(F)(F)F)cc3)ccc2C1` [Compound O-0207, (1,1-dioxidothietan-3-yl)(6-((4-(trifluoromethyl)phenyl)amino)-3,4-dihydroisoquinolin-2(1H)-yl)methanone] was 0.001 to 10 µM.
To `Nc1nccc(C(=O)N2CCc3c(cccc3Nc3ccc(C(F)(F)F)cc3)C2)n1` [Compound O-0033, (2-aminopyrimidin-4-yl)(5-((4-(trifluoromethyl)phenyl)amino)-3,4-dihydroisoquinolin-2(1H)-yl)methanone] belongs 0.001 to 10 µM; to `O=C(CCc1cnc[nH]1)N1CCc2c(cccc2Nc2ccc(C(F)(F)F)cc2)C1` [Compound O-0054, 3-(1H-imidazol-5-yl)-1-(5-((4-(trifluoromethyl)phenyl)amino)-3,4-dihydroisoquinolin-2(1H)-yl)propan-1-one], 0.001 to 10 µM.
`NC(=O)NCCC(=O)N1CCc2c(cccc2Nc2ccc(C(F)(F)F)cc2F)C1` [Compound O-0192, 1-(3-(5-((2-fluoro-4-(trifluoromethyl)phenyl)amino)-3,4-dihydroisoquinolin-2(1H)-yl)-3-oxopropyl)urea]: the IC50 was in the range of 0.001 to 10 µM.
Take `CN(c1ccc(C(F)(F)F)cc1)c1cccc2c1CCN(C(=O)Cc1cn[nH]c1)C2` [Compound O-0011, 1-(5-(methyl(4-(trifluoromethyl)phenyl)amino)-3,4-dihydroisoquinolin-2(1H)-yl)-2-(1H-pyrazol-4-yl)ethan-1-one]: the IC50 lay in the range of 0.001 to 10 µM.
Take `NC(=O)NCCC(=O)N1CCc2c(cccc2Nc2ccc(C(F)(F)F)cc2)C1` [Compound O-0056, 1-(3-oxo-3-(5-((4-(trifluoromethyl)phenyl)amino)-3,4-dihydroisoquinolin-2(1H)-yl)propyl)urea]: the IC50 lay in the range of 0.001 to 10 µM.
In the case of `O=C(c1cccc2cc[nH]c12)N1CCc2c(cccc2Nc2ccc(C(F)(F)F)nc2)C1` [Compound O-0060, (1H-indol-7-yl)(5-((6-(trifluoromethyl)pyridin-3-yl)amino)-3,4-dihydroisoquinolin-2(1H)-yl)methanone], the IC50 was 0.001 to 10 µM.
Consider `CS(=O)(=O)CCC(=O)N1CCc2c(cccc2Nc2ccc(C(F)(F)F)cc2)C1` [Compound O-0001, 3-(methylsulfonyl)-1-(5-((4-(trifluoromethyl)phenyl)amino)-3,4-dihydroisoquinolin-2(1H)-yl)propan-1-one], for which the IC50 was 0.001 to 10 µM.
With `CN(c1ccc(C(F)(F)F)cc1)c1ncnc2c1CCN(C(=O)CCS(=O)(=O)C(F)(F)F)C2` [Compound O-0025, 1-(4-(methyl(4-(trifluoromethyl)phenyl)amino)-5,8-dihydropyrido[3,4-d]pyrimidin-7(6H)-yl)-3-((trifluoromethyl)sulfonyl)propan-1-one], the IC50 was in the range of 0.001 to 10 µM.
For `O=C(Cc1cnco1)N1CCc2c(cccc2Nc2ccc(C(F)(F)F)cc2)C1` [Compound O-0004, 2-(oxazol-5-yl)-1-(5-((4-(trifluoromethyl)phenyl)amino)-3,4-dihydroisoquinolin-2(1H)-yl)ethan-1-one], the IC50 is 0.001 to 10 µM.
For `Nc1cccc(C(=O)N2CCc3c(cccc3Nc3ccc(C(F)(F)F)cc3)C2)c1` [Compound O-0028, (3-aminophenyl)(5-((4-(trifluoromethyl)phenyl)amino)-3,4-dihydroisoquinolin-2(1H)-yl)methanone], the IC50 was 10 to 100 µM.
The value for `O=C(NCCC(=O)N1CCc2c(cccc2Nc2ccc(C(F)(F)F)nc2)C1)NC1CC1` [Compound O-0195, 1-cyclopropyl-3-(3-oxo-3-(5-((6-(trifluoromethyl)pyridin-3-yl)amino)-3,4-dihydroisoquinolin-2(1H)-yl)propyl)urea] was 0.001 to 10 µM; that for `Nc1nc(CC(=O)N2CCc3c(cccc3Nc3ccc(C(F)(F)F)cc3)C2)cs1` [Compound O-0007, 2-(2-aminothiazol-4-yl)-1-(5-((4-(trifluoromethyl)phenyl)amino)-3,4-dihydroisoquinolin-2(1H)-yl)ethan-1-one] was 0.001 to 10 µM; that for `CN1CCN(CCCS(=O)(=O)N2CCc3c(cccc3Nc3ccc(C(F)(F)F)cc3)C2)CC1` [Compound O-0198, 2-((3-(4-methylpiperazin-1-yl)propyl)sulfonyl)-N-(4-(trifluoromethyl)phenyl)-1,2,3,4-tetrahydroisoquinolin-5-amine] was 0.001 to 10 µM.
The value for `O=C1NS(=O)(=O)c2cc(C(=O)N3CCc4c(cccc4Nc4ccc(C(F)(F)F)cc4)C3)ccc21` [Compound O-0199, 6-(5-((4-(trifluoromethyl)phenyl)amino)-1,2,3,4-tetrahydroisoquinoline-2-carbonyl)benzo[d]isothiazol-3(2H)-one 1,1-dioxide] was 0.001 to 10 µM; that for `O=C(NC1CC1)N1CCC(C(=O)N2CCc3c(cccc3Nc3ccc(C(F)(F)F)cc3F)C2)C1` (stereo not drawn) [Compound O-0094, N-cyclopropyl-3-(5-((2-fluoro-4-(trifluoromethyl)phenyl)amino)-1,2,3,4-tetrahydroisoquinoline-2-carbonyl)pyrrolidine-1-carboxamide] was 0.001 to 10 µM.

The record behind these values is patent US20250368614A1, “COMPOUNDS AND METHODS FOR YAP/TEAD MODULATION AND INDICATIONS THEREFOR” (OPNA BIO SA, priority 2023, published 2025).
